Source: patent US12427144B2, “Compounds and methods for the targeted degradation of androgen receptor” (Arvinas Operations, Inc., priority 2019, dated 2025)

Biological target: T1, Androgen Receptor (AR) (Homo sapiens, UniProt P10275)
T1 construct: endogenous in cells; host or cells: VCaP
T1 sequence (P10275 1-920): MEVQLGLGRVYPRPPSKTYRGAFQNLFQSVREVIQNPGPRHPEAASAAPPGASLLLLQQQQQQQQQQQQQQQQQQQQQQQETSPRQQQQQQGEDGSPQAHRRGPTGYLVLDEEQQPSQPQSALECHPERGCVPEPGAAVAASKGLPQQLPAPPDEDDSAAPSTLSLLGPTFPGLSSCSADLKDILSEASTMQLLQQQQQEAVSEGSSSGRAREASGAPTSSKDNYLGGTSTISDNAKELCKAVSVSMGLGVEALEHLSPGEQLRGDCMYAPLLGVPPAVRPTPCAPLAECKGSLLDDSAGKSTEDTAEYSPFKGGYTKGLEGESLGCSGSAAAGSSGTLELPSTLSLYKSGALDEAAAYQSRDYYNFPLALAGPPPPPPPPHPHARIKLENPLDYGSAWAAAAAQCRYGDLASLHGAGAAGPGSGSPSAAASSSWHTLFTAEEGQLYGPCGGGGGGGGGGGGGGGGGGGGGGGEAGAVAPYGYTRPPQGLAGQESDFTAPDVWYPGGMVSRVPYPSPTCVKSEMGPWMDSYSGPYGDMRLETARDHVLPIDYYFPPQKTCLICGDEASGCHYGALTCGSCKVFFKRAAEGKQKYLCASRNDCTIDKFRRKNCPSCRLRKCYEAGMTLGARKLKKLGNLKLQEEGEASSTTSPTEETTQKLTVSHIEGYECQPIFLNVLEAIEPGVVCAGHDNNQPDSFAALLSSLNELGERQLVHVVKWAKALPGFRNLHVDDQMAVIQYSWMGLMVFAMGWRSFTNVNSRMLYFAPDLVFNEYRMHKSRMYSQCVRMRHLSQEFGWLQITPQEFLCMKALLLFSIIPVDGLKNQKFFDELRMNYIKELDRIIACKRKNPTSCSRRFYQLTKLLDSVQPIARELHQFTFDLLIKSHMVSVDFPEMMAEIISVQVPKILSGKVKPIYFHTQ
Test: AR immunofluorescence staining, high content imager, VCaP cells
Assay type: cell-based
Settings: for DC50: AR degradation by immunofluorescence; for Dmax: maximal AR degradation
Outline: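 VCaP cells treated with compound, fixed in 4% PFA (8% 2× solution added directly for low-adherence lines), permeabilised with 0.1% Triton X-100 and blocked. Stained overnight at 4° C with anti-AR antibody, then FITC anti-rabbit secondary plus phalloidin and DAPI/Hoechst. Read by high-content imaging.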

SMILES	DC50 [nM]	Dmax [%]
COc1cc(O[C@H]2C(C)(C)[C@H](NC(=O)c3ccc(N4CCO[C@@H](CN5CCN(c6ccc(C(=O)NC7CCC(=O)NC7=O)c(OC)c6)CC5)C4)cc3)C2(C)C)ccc1C#N (stereo partly drawn) [Compound 58, N-(2,6-dioxopiperidin-3-yl)-2-methoxy-4-(4-{[(2S)-4-(4-{[(1r,3r)-3-(4-cyano-3-methoxyphenoxy)-2,2,4,4-tetramethylcyclobutyl]carbamoyl}phenyl)morpholin-2-yl]methyl}piperazin-1-yl)benzamide]	< 1	≥ 70
COc1cc(N2CCN(C[C@H]3CN(c4ccc(C(=O)N[C@H]5C(C)(C)[C@H](Oc6cc(C)c(C#N)c(C)c6)C5(C)C)cc4)CCO3)CC2)ccc1C(=O)NC1CCC(=O)NC1=O (stereo partly drawn) [Compound 59, N-(2,6-dioxopiperidin-3-yl)-2-methoxy-4-(4-{[(2S)-4-(4-{[(1r,3r)-3-(4-cyano-3,5-dimethylphenoxy)-2,2,4,4-tetramethylcyclobutyl]carbamoyl}phenyl)morpholin-2-yl]methyl}piperazin-1-yl)benzamide]	< 1	≥ 70
COc1cc(O[C@H]2C(C)(C)[C@H](NC(=O)c3ccc(N4CCC(CN5CCN(c6ccc(C(=O)NC7CCC(=O)NC7=O)cc6OC)CC5)CC4)cc3)C2(C)C)ccc1C#N (stereo partly drawn) [Compound 60, N-(2,6-dioxopiperidin-3-yl)-3-methoxy-4-(4-{[1-(4-{[(1r,3r)-3-(4-cyano-3-methoxyphenoxy)-2,2,4,4-tetramethylcyclobutyl]carbamoyl}phenyl)piperidin-4-yl]methyl}piperazin-1-yl)benzamide]	< 1	≥ 70
Cc1cc(O[C@H]2C(C)(C)[C@H](NC(=O)c3ccc(N4CCOC(CN(C(C)C)[C@H]5C[C@@H](Oc6ccc(F)c(C(=O)N[C@H]7CCC(=O)NC7=O)c6)C5)C4)cc3)C2(C)C)cc(C)c1C#N (stereo partly drawn) [Compound 61, 4-(2-{[(propan-2-yl)[(1r,3r)-3-(3-{[(3S)-2,6-dioxopiperidin-3-yl]carbamoyl}-4-fluorophenoxy)cyclobutyl]amino]methyl}morpholin-4-yl)-N-[(1r,3r)-3-(4-cyano-3,5-dimethylphenoxy)-2,2,4,4-tetramethylcyclobutyl]benzamide]	< 1	50 to 70
COc1cc(O[C@H]2C(C)(C)[C@H](NC(=O)c3ccc(N4CCOC(CN(C(C)C)[C@H]5C[C@@H](Oc6ccc(F)c(C(=O)N[C@H]7CCC(=O)NC7=O)c6)C5)C4)cc3)C2(C)C)ccc1C#N (stereo partly drawn) [Compound 62, 4-(2-{[(propan-2-yl)[(1r,3r)-3-(3-{[(3S)-2,6-dioxopiperidin-3-yl]carbamoyl}-4-fluorophenoxy)cyclobutyl]amino]methyl}morpholin-4-yl)-N-[(1r,3r)-3-(4-cyano-3-methoxyphenoxy)-2,2,4,4-tetramethylcyclobutyl]benzamide]	< 1	50 to 70
Cc1cc(O[C@H]2C(C)(C)[C@H](NC(=O)c3ccc(N4CC5(C4)CN([C@H]4C[C@H](Oc6ccc(C(=O)N[C@H]7CCC(=O)NC7=O)c(F)c6)C4)CCO5)cc3)C2(C)C)cc(C)c1C#N [Compound 63, N-[(1r,3r)-3-(4-cyano-3,5-dimethylphenoxy)-2,2,4,4-tetramethylcyclobutyl]-4-{8-[(1r,3r)-3-(4-{[(3S)-2,6-dioxopiperidin-3-yl]carbamoyl}-3-fluorophenoxy)cyclobutyl]-5-oxa-2,8-diazaspiro[3.5]nonan-2-yl}benzamide]	< 1	50 to 70
Cc1cc(O[C@H]2C(C)(C)[C@H](NC(=O)c3ccc(N4CCC(CN5CCOCCCCOc6cc(C(=O)NC7CCC(=O)NC7=O)ccc6O[C@H]6C[C@H]5C6)CC4)cc3)C2(C)C)cc(C)c1C#N (stereo partly drawn) [Compound 64, (1r,18r)-N-(2,6-dioxopiperidin-3-yl)-17-{[1-(4-{[(1r,3r)-3-(4-cyano-3,5-dimethylphenoxy)-2,2,4,4-tetramethylcyclobutyl]carbamoyl}phenyl)piperidin-4-yl]methyl}-2,9,14-trioxa-17-azatricyclo[16.1.1.0^3,8]icosa-3(8),4,6-triene-6-carboxamide]	< 1	50 to 70
Cc1cc(O[C@H]2C(C)(C)[C@H](NC(=O)c3ccc(N4CCO[C@@H](CN(C(C)C)[C@H]5C[C@H](Oc6ccc(C(=O)N[C@H]7CCC(=O)NC7=O)c(F)c6)C5)C4)cc3)C2(C)C)cc(C)c1C#N [Compound 65, 4-[(2S)-2-{[(propan-2-yl)[(1r,3r)-3-(4-{[(3S)-2,6-2,2,4,4-dioxopiperidin-3-yl]carbamoyl}-3-fluorophenoxy)cyclobutyl]amino]methyl}morpholin-4-yl]-N-[(1r,3r)-3-(4-cyano-3,5-dimethylphenoxy)-2,2,4,4-tetramethylcyclobutyl]benzamide]	< 1	50 to 70
COc1cc(C(=O)NC2CCC(=O)NC2=O)ccc1O[C@H]1C[C@H](N(CC2CCN(c3ccc(C(=O)N[C@H]4C(C)(C)[C@H](Oc5cc(C)c(C#N)c(C)c5)C4(C)C)cc3)CC2)C(C)C)C1 (stereo partly drawn) [Compound 66, N-(2,6-dioxopiperidin-3-yl)-3-methoxy-4-[(1r,3r)-3-[(propan-2-yl)({[1-(4-{[(1r,3r)-3-(4-cyano-3,5-dimethylphenoxy)-2,2,4,4-tetramethylcyclobutyl]carbamoyl}phenyl)piperidin-4-yl]methyl})amino]cyclobutoxy]benzamide]	< 1	50 to 70
COCCN(C[C@H]1CN(c2ccc(C(=O)N[C@H]3C(C)(C)[C@H](Oc4cc(C)c(C#N)c(C)c4)C3(C)C)cc2)CCO1)[C@H]1C[C@H](Oc2ccc(C(=O)N[C@H]3CCC(=O)NC3=O)c(F)c2)C1 [Compound 67, 4-[(2S)-2-{[(2-methoxyethyl)[(1r,3r)-3-(4-{[(3S)-2,6-dioxopiperidin-3-yl]carbamoyl}-3-fluorophenoxy)cyclobutyl]amino]methyl}morpholin-4-yl]-N-[(1r,3r)-3-(4-cyano-3,5-dimethylphenoxy)-2,2,4,4-tetramethylcyclobutyl]benzamide]	1 to 10	≥ 70
Cc1cc(O[C@H]2C(C)(C)[C@H](NC(=O)c3ccc(N4CCC5(CC4)CN([C@H]4C[C@H](Oc6ccc(C(=O)NC7CCC(=O)NC7=O)cc6)C4)CCO5)cc3)C2(C)C)cc(C)c1C#N (stereo partly drawn) [Compound 68, N-[(1r,3r)-3-(4-cyano-3,5-dimethylphenoxy)-2,2,4,4-tetramethylcyclobutyl]-4-{4-[(1r,3r)-3-{4-[(2,6-dioxopiperidin-3-yl)carbamoyl]phenoxy}cyclobutyl]-1-oxa-4,9-diazaspiro[5.5]undecan-9-yl}benzamide]	1 to 10	50 to 70
COc1cc(O[C@H]2C(C)(C)[C@H](NC(=O)c3ccc(N4CCC(CN5CCN(c6ccc(F)c(C(=O)N[C@H]7CCC(=O)NC7=O)c6)CC5)CC4)cc3)C2(C)C)ccc1C#N [Compound 69, N-[(3S)-2,6-dioxopiperidin-3-yl]-2-fluoro-5-(4-{[1-(4-{[(1r,3r)-3-(4-cyano-3-methoxyphenoxy)-2,2,4,4-tetramethylcyclobutyl]carbamoyl}phenyl)piperidin-4-yl]methyl}piperazin-1-yl)benzamide]	10 to 100	≥ 70
Cc1cc(O[C@H]2C(C)(C)[C@H](NC(=O)c3ccc(N4CC(CN5CC(c6ccc(C(=O)N[C@H]7CCC(=O)NC7=O)c(F)c6)C5)C4)cc3)C2(C)C)cc(C)c1C#N [Compound 71, N-[(3S)-2,6-dioxopiperidin-3-yl]-2-fluoro-4-(1-{[1-(4-{[(1r,3r)-3-(4-cyano-3,5-dimethylphenoxy)-2,2,4,4-tetramethylcyclobutyl]carbamoyl}phenyl)azetidin-3-yl]methyl}azetidin-3-yl)benzamide]	< 1	50 to 70
Cc1cc(O[C@H]2C(C)(C)[C@H](NC(=O)c3ccc(N4CCC(CN5CCOCCCCCOc6ccc(C(=O)NC7CCC(=O)NC7=O)cc6O[C@H]6C[C@H]5C6)CC4)cc3)C2(C)C)cc(C)c1C#N (stereo partly drawn) [Compound 72, (1r,19r)-N-(2,6-dioxopiperidin-3-yl)-18-{[1-(4-{[(1r,3r)-3-(4-cyano-3,5-dimethylphenoxy)-2,2,4,4-tetramethylcyclobutyl]carbamoyl}phenyl)piperidin-4-yl]methyl}-2,9,15-trioxa-18-azatricyclo[17.1.1.0^3,8]henicosa-3(8),4,6-triene-5-carboxamide]	1 to 10	< 50
Cc1cc(O[C@H]2C(C)(C)[C@H](NC(=O)c3ccc(N4CCC(O[C@H]5C[C@H](Oc6ccc(C(=O)N[C@H]7CCC(=O)NC7=O)c(F)c6)C5)CC4)cc3)C2(C)C)cc(C)c1C#N [Compound 73, N-[(1r,3r)-3-(4-cyano-3,5-dimethylphenoxy)-2,2,4,4-tetramethylcyclobutyl]-4-{4-[(1r,3r)-3-(4-{[(3S)-2,6-dioxopiperidin-3-yl]carbamoyl}-3-fluorophenoxy)cyclobutoxy]piperidin-1-yl}benzamide]	1 to 10	< 50
